The values below come from patent US20260317324A1, “BIFUNCTIONAL COMPOUNDS FOR DEGRADING BRAF VIA UBIQUITIN PROTEOSOME PATHWAY” (Nurix Therapeutics, Inc., priority 2023, published 2026).

A value given as a limit tells only on which side of the number the result lay.

One may read the DC50 as the concentration giving 50% degradation. For orientation: Dmax means the largest share of the target that was removed. Higher therefore signals deep degradation.

Holding throughout (assay type): cell-based
Assay [1] concerns the target T1, BRAF V600E (Homo sapiens, UniProt P15056, V600E).
T1 construct: endogenous C-terminal HiBiT fusion tag on BRAF V600E allele; endogenous in cells; host or cells: A375 clone 1F10 (CRISPR-Cas9 knock-in of the HiBiT tag; parental A375 from ATCC)
As to the kind of experiment: BRAF HiBiT degradation assay, C-terminal HiBiT-tagged BRAF V600E A375 cells (clone 1F10), Nano-Glo HiBiT Lytic assay. To be noted: for Dmax: A-375. In a few lines: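 A375 cells (clone 1F10, endogenous C-terminal HiBiT on BRAF V600E) were seeded at 10,000 cells/well, grown 24 h, then dosed in duplicate with an 11-point series from 1 μM to 0.01 nM (0.2% DMSO). Nano-Glo HiBiT lytic luminescence was normalised to DMSO and wildtype-A375 background; DC50 was read at 50% protein remaining, alongside observed Dmax.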

Assay [2] concerns the target T2, BRAF G466V (Homo sapiens, UniProt P15056, G466V).
T2 construct: Horizon Discovery (HCT-116 BRAF−/− cells); host or cells: HCT-116 BRAF−/− cells, clone 8, lentiviral transduction
As to the kind of experiment: BRAF HiBiT degradation assay, C-terminal HiBiT-tagged BRAF G466V overexpressed in HCT-116 BRAF−/− cells (clone 8), Nano-Glo HiBiT Lytic assay. In a few lines: (§1)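 HCT-116 BRAF−/− clones stably overexpressing C-terminal HiBiT-tagged mutant BRAF were seeded 24 h before treatment with an 11-point half-log series from 1 μM to 0.01 nM (0.2% DMSO final). Remaining protein was read by HiBiT lytic luminescence, with DMSO and wildtype-cell controls. DC50 was taken as the fitted concentration at 50% remaining protein; observed Dmax is reported relative to DMSO.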

For assay [3], the target named is T3, BRAF G469A (Homo sapiens, UniProt P15056, G469A).
T3 construct: Horizon Discovery (HCT-116 BRAF−/− cells); host or cells: HCT-116 BRAF−/− cells, clone 34, lentiviral transduction
Nature of the assay: BRAF HiBiT degradation assay, C-terminal HiBiT-tagged BRAF G469A overexpressed in HCT-116 BRAF−/− cells (clone 34), Nano-Glo HiBiT Lytic assay. The procedure, abridged:
as §1
In general terms: The HiBiT peptide binds its large partner to form an active luciferase.

Assay [4] concerns the target T4, BRAF D594G (Homo sapiens, UniProt P15056, D594G).
T4 construct: Horizon Discovery (HCT-116 BRAF−/− cells); host or cells: HCT-116 BRAF−/− cells, clone 63, lentiviral transduction
As to the kind of experiment: BRAF HiBiT degradation assay, C-terminal HiBiT-tagged BRAF D594G overexpressed in HCT-116 BRAF−/− cells (clone 63), Nano-Glo HiBiT Lytic assay. The procedure, abridged:
as §1

Where [5] appears, read: A375 (BRAF V600E, Class 1), DC50 at 50% degradation.
Where [6] appears, read: A375 (BRAF V600E, Class 1), observed Dmax, % protein degraded relative to DMSO control.
[7] abbreviates: BRAF G466V (Class 3), HCT-116 BRAF−/− cells, DC50 at 50% degradation.
[8] abbreviates: BRAF G466V (Class 3), HCT-116 BRAF−/− cells, observed Dmax relative to DMSO control.
Where [9] appears, read: BRAF G469A (Class 2), HCT-116 BRAF−/− cells, DC50 at 50% degradation.
[10] abbreviates: BRAF G469A (Class 2), HCT-116 BRAF−/− cells, observed Dmax relative to DMSO control.
[11] abbreviates: BRAF D594G (Class 3), HCT-116 BRAF−/− cells, DC50 at 50% degradation.
Setting [12] is: BRAF D594G (Class 3), HCT-116 BRAF−/− cells, observed Dmax relative to DMSO control.
Setting [13] is: A375 (BRAF V600E), DC50 at 50%: fitted conc. at Y=50.
[14] abbreviates: A375 (BRAF V600E), percentage protein degraded at maximal compound effect relative to DMSO.
[15] abbreviates: BRAF G466V, DC50 at 50%: fitted conc. at Y=50.
[16] abbreviates: HCT-116, BRAF G466V, percentage protein degraded at maximal compound effect relative to DMSO.
The mark [17] stands for this setting: Class 2, BRAF G469A, DC50 at 50%: fitted conc. at Y=50.
Where [18] appears, read: HCT-116, Class 2, BRAF G469A, percentage protein degraded at maximal compound effect relative to DMSO.
Setting [19] is: BRAF D594G, DC50 at 50%: fitted conc. at Y=50.
Where [20] appears, read: HCT-116, BRAF D594G, percentage protein degraded at maximal compound effect relative to DMSO.

T2 sequence (P15056 whole entry G466V): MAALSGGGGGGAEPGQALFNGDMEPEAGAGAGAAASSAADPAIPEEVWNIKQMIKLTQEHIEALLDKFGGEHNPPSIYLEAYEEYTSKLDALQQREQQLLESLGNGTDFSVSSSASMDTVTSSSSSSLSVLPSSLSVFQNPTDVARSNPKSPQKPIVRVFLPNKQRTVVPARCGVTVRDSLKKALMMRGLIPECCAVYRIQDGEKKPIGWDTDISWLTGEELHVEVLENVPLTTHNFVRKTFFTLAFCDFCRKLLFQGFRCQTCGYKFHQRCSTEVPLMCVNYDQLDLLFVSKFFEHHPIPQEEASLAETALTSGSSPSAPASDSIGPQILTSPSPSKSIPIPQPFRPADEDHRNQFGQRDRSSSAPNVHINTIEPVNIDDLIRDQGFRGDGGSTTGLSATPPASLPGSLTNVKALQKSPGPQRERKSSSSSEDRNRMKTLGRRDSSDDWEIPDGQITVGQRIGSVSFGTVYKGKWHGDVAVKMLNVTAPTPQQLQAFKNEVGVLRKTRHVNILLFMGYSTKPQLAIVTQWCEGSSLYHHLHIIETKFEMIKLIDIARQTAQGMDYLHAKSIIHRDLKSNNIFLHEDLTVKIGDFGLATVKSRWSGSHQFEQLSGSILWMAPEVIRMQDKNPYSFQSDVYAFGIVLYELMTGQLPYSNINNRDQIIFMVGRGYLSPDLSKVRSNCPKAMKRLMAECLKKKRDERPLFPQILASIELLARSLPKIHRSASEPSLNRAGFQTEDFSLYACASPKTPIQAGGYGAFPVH
T1 sequence (P15056 whole entry V600E, the tested form may be a part): as the sequence (P15056 whole entry G466V) above, with V466G, V600E counted along it
T4 sequence (P15056 whole entry D594G): as the sequence (P15056 whole entry G466V) above, with V466G, D594G counted along it
T3 sequence (P15056 whole entry G469A): as the sequence (P15056 whole entry G466V) above, with V466G, G469A counted along it

With `O=C1CCN(c2ccc(N3CCC(CN4CCN(c5ccc(-n6cc(-c7cc(Cl)cc(NS(=O)(=O)N8CCCC8)c7F)c(-c7ccncc7)n6)nc5)CC4)CC3)cc2)C(=O)N1` [Compound 287, N-[5-chloro-3-(1-{5-[4-({1-[4-(2,4-dioxo-1,3-diazinan-1-yl)phenyl]piperidin-4-yl}methyl)piperazin-1-yl]pyridin-2-yl}-3-(pyridin-4-yl)-1H-pyrazol-4-yl)-2-fluorophenyl]pyrrolidine-1-sulfonamide], the DC50 is less than 10 nM in assay [1] (setting [5]), less than 10 nM in assay [2] (setting [7]), 10 to 50 nM in assay [3] (setting [9]) and less than 10 nM in assay [4] (setting [11]). In addition, the Dmax in assay [1] (setting [6]) was greater than 70%; in assay [2] (setting [8]), 30 to 70%; in assay [3] (setting [10]) it was 30 to 70%; in assay [4] (setting [12]) it was 30 to 70%.
For `O=C1CCC(c2ccc(N3CCC(CN4CCN(c5ccc(-n6cc(-c7cc(Cl)cc(NS(=O)(=O)N8CCCC8)c7F)c(-c7ccncc7)n6)cc5F)CC4)CC3)nc2)C(=O)N1` (racemic) [Compound 363, Rac-N-{5-chloro-3-[1-(4-{4-[(1-{5-[(3R)-2,6-dioxopiperidin-3-yl]pyridin-2-yl}piperidin-4-yl)methyl]piperazin-1-yl}-3-fluorophenyl)-3-(pyridin-4-yl)-1H-pyrazol-4-yl]-2-fluorophenyl}pyrrolidine-1-sulfonamide], the DC50 in assay [1] (setting [5]), in assay [2] (setting [7]), in assay [3] (setting [9]) and in assay [4] (setting [11]) was less than 10 nM each time. Further, the maximal degradation (Dmax) in assay [1] (setting [6]), in assay [2] (setting [8]), in assay [3] (setting [10]) and in assay [4] (setting [12]) was greater than 70% each time.
For `CCCS(=O)(=O)Nc1cccc(-c2nc(C(C)(C)C)sc2-c2ccnc(Nc3ccc4c(c3)CCN(CC3CCN(c5ccc6c(=O)n(C7CCC(=O)NC7=O)ccc6c5)CC3)C4)n2)c1F` (racemic) [Compound 85, Rac-N-(3-{2-tert-butyl-5-[2-({2-[(1-{2-[(3R)-2,6-dioxopiperidin-3-yl]-1-oxo-1,2-dihydroisoquinolin-6-yl}piperidin-4-yl)methyl]-1,2,3,4-tetrahydroisoquinolin-6-yl}amino)pyrimidin-4-yl]-1,3-thiazol-4-yl}-2-fluorophenyl)propane-1-sulfonamide], the DC50 in assay [1] (setting [13]) was 10 to 50 nM; in assay [2] (setting [15]), greater than 500 nM; in assay [3] (setting [17]), greater than 500 nM; in assay [4] (setting [19]), greater than 500 nM. Moreover, the Dmax is 30 to 70% in assay [1] (setting [14]), 30 to 70% in assay [2] (setting [16]), less than 30% in assay [3] (setting [18]) and 30 to 70% in assay [4] (setting [20]).
As for `O=C1CC[C@H](c2ccc(N3CCC(CN4CCN(c5ccc(-n6cc(-c7cc(F)cc(NS(=O)(=O)N8CC[C@@H](F)C8)c7F)c(-c7ccncc7)n6)nc5)CC4)CC3)nc2)C(=O)N1` [Compound 305, (3R)—N-{3-[1-(5-{4-[(1-{5-[(3R)-2,6-dioxopiperidin-3-yl]pyridin-2-yl}piperidin-4-yl)methyl]piperazin-1-yl}pyridin-2-yl)-3-(pyridin-4-yl)-1H-pyrazol-4-yl]-2,5-difluorophenyl}-3-fluoropyrrolidine-1-sulfonamide], the 50% degradation concentration (DC50) in assay [1] (setting [5]), in assay [2] (setting [7]), in assay [3] (setting [9]) and in assay [4] (setting [11]) was less than 10 nM throughout. The Dmax in assay [1] (setting [6]), in assay [2] (setting [8]), in assay [3] (setting [10]) and in assay [4] (setting [12]) was greater than 70% in each case.
Take `CCCS(=O)(=O)Nc1cccc(-c2nc(C(C)(C)C)sc2-c2ccnc(Nc3cnn(CC4CCN(C(=O)[C@H]5CC[C@H](Oc6ccc(C7CCC(=O)NC7=O)cn6)CC5)CC4)c3)n2)c1F` (mixture of isomers) [Compound 117, N-{3-[2-tert-butyl-5-(2-{[1-({1-[(1r,4r)-4-({5-[(3RS)-2,6-dioxopiperidin-3-yl]pyridin-2-yl}oxy)cyclohexanecarbonyl]piperidin-4-yl}methyl)-1H-pyrazol-4-yl]amino}pyrimidin-4-yl)-1,3-thiazol-4-yl]-2-fluorophenyl}propane-1-sulfonamide]: the DC50 in assay [1] (setting [13]) was less than 10 nM; in assay [2] (setting [15]), greater than 500 nM; in assay [3] (setting [17]), greater than 500 nM; in assay [4] (setting [19]), greater than 500 nM. In addition, the Dmax in assay [1] (setting [14]) was greater than 70%; in assay [2] (setting [16]), less than 30%; in assay [3] (setting [18]) it was less than 30%; in assay [4] (setting [20]) it was 30 to 70%.
As for `CCCS(=O)(=O)Nc1cccc(-c2nc(C3CCN(CC4CCN(C[C@H]5CC[C@H](Oc6ccc(C7CCC(=O)NC7=O)cc6)CC5)CC4)CC3)sc2-c2ccnc(N)n2)c1F` (mixture of isomers) [Compound 225, N-{3-[5-(2-aminopyrimidin-4-yl)-2-{1-[(1-{[(1r,4r)-4-{4-[(3RS)-2,6-dioxopiperidin-3-yl]phenoxy}cyclohexyl]methyl}piperidin-4-yl)methyl]piperidin-4-yl}-1,3-thiazol-4-yl]-2-fluorophenyl}propane-1-sulfonamide], the DC50 in assay [1] (setting [13]) was 10 to 50 nM; in assay [2] (setting [15]) it was greater than 500 nM; in assay [3] (setting [17]), greater than 500 nM; in assay [4] (setting [19]), greater than 500 nM. The maximal degradation (Dmax) in assay [1] (setting [14]) was greater than 70%; in assay [2] (setting [16]), 30 to 70%; in assay [3] (setting [18]), less than 30%; in assay [4] (setting [20]), 30 to 70%.
Consider `CCCS(=O)(=O)Nc1cccc(-c2nc(C(C)(C)C)sc2-c2ccnc(Nc3cnn(CC4CCN(C[C@H]5CC[C@H](Oc6ccc(C7CCC(=O)NC7=O)cc6)CC5)CC4)c3)n2)c1F` (mixture of isomers) [Compound 84, N-(3-{2-tert-butyl-5-[2-({1-[(1-{[(1r,4r)-4-{4-[(3RS)-2,6-dioxopiperidin-3-yl]phenoxy}cyclohexyl]methyl}piperidin-4-yl)methyl]-1H-pyrazol-4-yl}amino)pyrimidin-4-yl]-1,3-thiazol-4-yl}-2-fluorophenyl)propane-1-sulfonamide], for which the half-maximal degradation concentration (DC50) in assay [1] (setting [13]) was 50 to 500 nM; in assay [2] (setting [15]), greater than 500 nM; in assay [3] (setting [17]), greater than 500 nM; in assay [4] (setting [19]), greater than 500 nM. Also, the Dmax in assay [1] (setting [14]) is greater than 70%; in assay [2] (setting [16]) it was less than 30%; in assay [3] (setting [18]) it was less than 30%; in assay [4] (setting [20]), 30 to 70%.
Regarding `CCCS(=O)(=O)Nc1cccc(-c2cn(-c3ccc(N4CCN(CC5CCN(c6ccc(C7CCC(=O)NC7=O)cn6)CC5)CC4)nc3)nc2-c2ccncc2)c1F` (racemic) [Compound 3, Rac-N-{3-[1-(6-{4-[(1-{5-[(3R)-2,6-dioxopiperidin-3-yl]pyridin-2-yl}piperidin-4-yl)methyl]piperazin-1-yl}pyridin-3-yl)-3-(pyridin-4-yl)-1H-pyrazol-4-yl]-2-fluorophenyl}propane-1-sulfonamide], the DC50 is 50 to 500 nM in assay [1] (setting [13]), 10 to 50 nM in assay [2] (setting [15]), greater than 500 nM in assay [3] (setting [17]) and 10 to 50 nM in assay [4] (setting [19]). Also, the Dmax is greater than 70% in assay [1] (setting [14]), 30 to 70% in assay [2] (setting [16]), 30 to 70% in assay [3] (setting [18]) and 30 to 70% in assay [4] (setting [20]).
In the case of `O=C1CC[C@H](c2ccc(N3CCC(CN4CCN(c5ccc(-n6cc(-c7cc(F)cc(NS(=O)(=O)N8CCCC8)c7F)c(-c7ccncc7)n6)cc5)CC4)CC3)nc2)C(=O)N1` [Compound 301, N-{3-[1-(4-{4-[(1-{5-[(3R)-2,6-dioxopiperidin-3-yl]pyridin-2-yl}piperidin-4-yl)methyl]piperazin-1-yl}phenyl)-3-(pyridin-4-yl)-1H-pyrazol-4-yl]-2,5-difluorophenyl}pyrrolidine-1-sulfonamide], the half-maximal degradation concentration (DC50) in assay [1] (setting [5]) is less than 10 nM; in assay [2] (setting [7]), less than 10 nM; in assay [3] (setting [9]), 10 to 50 nM; in assay [4] (setting [11]), less than 10 nM. The greatest degradation seen (Dmax) in assay [1] (setting [6]) is greater than 70%; in assay [2] (setting [8]) it was greater than 70%; in assay [3] (setting [10]), greater than 70%; in assay [4] (setting [12]) it was 30 to 70%.
